Measurements from patent US20260209219A1, “SUBSTITUTED TETRAHYDROPYRROLO-PYRIDINONE COMPOUNDS AND THEIR USE IN TREATING MEDICAL CONDITIONS” (Karuna Therapeutics, Inc., priority 2022, published 2026).

Key:
[1] = molecular target: T1, human M4 receptor (Homo sapiens, UniProt P08173); assay: M4 GTPγS PAM assay; assay type: biochemical; details: membranes of CHO-K1 cells stably expressing human M4; EC20 acetylcholine 40 nM
T1 construct: expressed in transfected cells; host or cells: CHO-K1 cells (membrane preparation)
T1 sequence (P08173 1-479): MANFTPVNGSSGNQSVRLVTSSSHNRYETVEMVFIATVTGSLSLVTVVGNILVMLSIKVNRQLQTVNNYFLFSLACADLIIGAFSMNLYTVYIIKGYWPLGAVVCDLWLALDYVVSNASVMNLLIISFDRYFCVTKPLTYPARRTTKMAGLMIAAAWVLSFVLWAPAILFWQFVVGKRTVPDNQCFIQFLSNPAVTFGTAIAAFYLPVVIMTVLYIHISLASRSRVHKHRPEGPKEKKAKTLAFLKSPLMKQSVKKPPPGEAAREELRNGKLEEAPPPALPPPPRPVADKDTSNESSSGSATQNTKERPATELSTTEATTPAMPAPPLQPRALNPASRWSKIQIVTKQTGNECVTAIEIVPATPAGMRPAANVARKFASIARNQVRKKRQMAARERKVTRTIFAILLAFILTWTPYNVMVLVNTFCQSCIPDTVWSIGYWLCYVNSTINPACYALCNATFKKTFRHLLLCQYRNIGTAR
Method: The M4 GTPγS PAM method was used. Membranes were prepared for GTPgS binding assays from CHO-K1 cells stably expressing human M4 receptor. Briefly, cells were grown in 5-layer cell culture flasks. Cells were washed with 50 mL of PBS and then dissociated with 0.05% trypsin. Dissociated cells were then collected by centrifugation at 650×g for 8 minutes at 4° C. Pellets were washed again in PBS by centrifugation and resuspended in 30 mL of 20 mM HEPES, 10 mM EDTA, pH 7.4. After sitting on ice for 30 min, membranes were collected by centrifugation at 50000×g for 15′ at 4° C., resuspended in 30 mL of 20 mM HEPES, 0.1 mM EDTA, pH 7.4 and collected again by centrifugation. Pellets were then washed twice by centrifugation in 30 mL of 20 mM HEPES, pH 7.4, and stored at −80° C. until the day of the assay. On the day of the assay, pellets were thawed on ice and resuspended in 1 mL of 20 mM HEPES, pH 7.4, 10 mM MgCl2, 100 mM NaCl using dounce homogenization. Membrane protein concentration is determined by BCA protein assay (Promega, Madison, WI) according to Promega guidelines.
On the day of the assay, serial dilutions of test PAM compounds were brought up in assay buffer (20 mM HEPES, 10 mM MgCl2, 100 mM NaCl) at 4× final assay concentration. […] of membrane homogenates (containing […] of membrane protein) were prepared in assay buffer supplemented with GDP at 4× final assay concentration (final assay concentration of GDP is 5 μM for M2 and 0.1 μM for M4) and dispensed into 96 well polypropylene, U-bottom Greiner plates. […] of vehicle or test PAM compound at 4× of final assay concentration diluted in the assay buffer were added to membrane and plates are incubated for 10-15 minutes at room temperature with gentle shaking. Then, […] of EC20 acetylcholine in assay buffer at 4× final assay concentration was added to assay plates (EC20 final assay concentrations was 40 nM for human M4).
Plates were then incubated, with shaking, for an additional 10-15 minutes. 25 mL of 0.4 nM ^35S-GTP (Perkin Elmer, Waltham, MA) in assay buffer was added to assay mixtures. The binding reaction is left on the shaker for 1 hour at room temperature. Membranes in assay reactions were then transferred to GF/C filter plates (Unifilter, Perkin Elmer) and washed three times using a FilterMate Harvester (Perkin Elmer) with cold assay buffer containing no GDP. Filter plates were then dried at 40° C. overnight followed by the addition of […] of Beta Plate Scintillation liquid. Plates are top and bottom sealed before being read on TopCount scintillation counter (Perkin Elmer, Waltham, MA).

[2] = molecular target: T2, hM4 receptors (Homo sapiens, UniProt P08173); assay: Human M4 PAM pERK assay; assay type: cell-based; details: CHO cells expressing hM4; with EC20 of acetylcholine (10 nM final)
T2 construct: expressed in transfected cells; host or cells: CHO cells
T2 sequence (P08173 1-479): T1 sequence (P08173 1-479)
Method: Chinese hamster ovary (CHO) cells expressing either hM4 or rM4 receptors were frozen in assay ready vials (5×10^6 cells/vial) after bulking-up in culture. The day before an assay, vial(s) were thawed and cells seeded in 384 well white proxiplates at 1000/well for hM4 cells and at 2000/well for rM4 cells, in 10 μL of growth media (Hams/F12 with glutamax and 10% FCS) and incubated overnight at 37° C./5% CO2.
On the following morning, the growth media was removed by ‘flicking out’ over a bin, patting the inverted plate onto tissue, and then replacing with 10 μL of wash media (Hams/F12 with glutamax and 8 mM HEPES, NB: serum free). Then, the wash media was removed in the same way and replaced with 8 μL/well of the serum free media. Plates were then re-incubated for a further 4 hours at 37° C./5% CO2.
Compounds for testing were solubilized to 10 mM in DMSO and compound addition plates, consisting of ten-point concentration response curves (CRC) in duplicate points (10 μM top concentration, ½ log dilution series), were prepared by acoustic dispensing and the compound management group.
After the 4-hour incubation in serum free media, a 4 μL aliquot of the 3× compound solution containing an EC20 of acetylcholine (10 nM final concentration) was added to the cell plate using a 384 well plate to plate transfer. Then, the plate lid was replaced, and the cells incubated for 5 mins at 37° C./5% CO2. Following this final incubation, all cellular processes were stopped by the addition of 4 μL/well of lysis and blocking buffer and plates were incubated for 30 minutes at RT on an orbital shaker (gentle setting). Then, a final addition of 4 μL/well of antibody detection mix, containing both the Europium-Cryptate (donor) and d2 (acceptor) tagged detection components, was added followed by a further 2-hour incubation at RT, and then the plate was read using a TR-FRET (time resolved fluorescence resonance energy transfer) based protocol.

EC50 [1] [nM]	EC50 [2] [nM]	Compound
< 100	100 to 500	Cc1cc(=O)n(C)c2c1CN(C(=O)CC1CC1c1ccc(C(F)(F)F)cc1)C2 (single isomer, unassigned) [Compound I-7]
< 100	< 100	Cc1c2c(n(C)c(=O)c1F)CN(C(=O)CC1CC1c1ccc(C(F)(F)F)cc1)C2 (stereo not shown) [Compound I-26]
